Here are results for 3 compounds from article PMC4040390 (Angewandte Chemie (International ed. in English), 2009).

Common to all, as to assay type: cell-based
For test [1], the system named is Sh-IR. Conditions: isomer that blocks Sh-IR.
In test [2] the test system is endogenous K+ channels in dissociated hippocampal neurons. Conditions: 20 μM extracellular treatment, Iss at +40 mV, n = 10.
Test [3] concerns voltage-gated Na+ channels expressed in GH3 cells. Put plainly: Photosensitization of voltage-gated Na+ channels expressed in GH3 cells.
Test [4] deals with voltage-gated Ca2+ channels expressed in GH3 cells. In words: Photosensitization of voltage-gated Ca2+ channels expressed in GH3 cells.

Regarding Propyl-Azo-QA [Compound 10], the “Active Isomer” value in test [1] was “preferentially blocks in the cis form”.
With `CC[N+](CC)(CC)CC(=O)Nc1ccc(/N=N/c2ccc(NC(=O)c3ccccc3)cc2)cc1` [Compound 7, Benzoyl-Azo-QA], in test [1], the “Active Isomer” value is listed as “trans”. Also, in test [2], the “% of Iss blocked (380 vs 500 nm)” value is given as 35.5% ± 4.7. In test [3], the “photosensitization of voltage-gated Na+ channels” value is given as “did not photosensitize”. For the same compound, in test [4], the “photosensitization of voltage-gated Ca2+ channels” value is listed as “did not photosensitize”.
For `C=CC(=O)Nc1ccc(N=Nc2ccc(NC(=O)C[N+](CC)(CC)CC)cc2)cc1` [Compound 1], the “Active Isomer” value in test [1] is on record as “trans”.
